# Source: US4347319A, “Microbiological epoxidation process” (priority 1980, dated 1982)
# Legend:
# [1] = biological target: T1, cell fractions of Methylosinus sp. (CRL-15, NRRL B-11,202) (Methylosinus trichosporium, UniProt Q50541+Q9KX50+Q9KX51); test: Oxidation by cell fractions P(40), P(80), S(80); type: biochemical; settings: P(40) particulate fraction; alkene to epoxide, alkane to alcohol; 30° C.
# T1 sequence (Q9KX50 40-431): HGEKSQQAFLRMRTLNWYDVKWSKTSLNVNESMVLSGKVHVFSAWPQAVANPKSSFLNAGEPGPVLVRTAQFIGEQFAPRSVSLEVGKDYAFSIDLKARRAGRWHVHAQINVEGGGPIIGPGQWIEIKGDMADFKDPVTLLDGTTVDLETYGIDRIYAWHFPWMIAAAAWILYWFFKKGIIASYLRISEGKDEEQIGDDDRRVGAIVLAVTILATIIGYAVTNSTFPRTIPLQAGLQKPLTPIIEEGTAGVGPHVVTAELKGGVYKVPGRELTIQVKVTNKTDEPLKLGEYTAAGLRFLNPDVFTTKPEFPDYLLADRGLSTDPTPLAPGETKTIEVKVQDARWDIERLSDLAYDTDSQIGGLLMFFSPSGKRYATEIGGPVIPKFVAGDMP
# T1 sequence (Q50541 1-252): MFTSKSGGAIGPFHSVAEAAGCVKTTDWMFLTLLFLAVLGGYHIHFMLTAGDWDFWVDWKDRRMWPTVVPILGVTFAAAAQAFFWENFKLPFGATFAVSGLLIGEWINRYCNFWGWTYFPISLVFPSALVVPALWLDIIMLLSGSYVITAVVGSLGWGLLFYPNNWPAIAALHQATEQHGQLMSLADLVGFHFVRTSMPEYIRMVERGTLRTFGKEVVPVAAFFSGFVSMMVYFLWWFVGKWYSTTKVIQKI
# T1 sequence (Q9KX51 1-256): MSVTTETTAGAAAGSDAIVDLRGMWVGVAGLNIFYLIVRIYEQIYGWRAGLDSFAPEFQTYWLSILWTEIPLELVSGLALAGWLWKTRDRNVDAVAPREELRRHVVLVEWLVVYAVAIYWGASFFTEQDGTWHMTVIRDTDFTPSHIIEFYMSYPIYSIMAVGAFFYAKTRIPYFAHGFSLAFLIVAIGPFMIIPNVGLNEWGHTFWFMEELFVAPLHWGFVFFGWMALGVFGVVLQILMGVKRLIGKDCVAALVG
# Experimental: Cells were washed twice with 25 mM potassium phosphate buffer, pH 7.0 containing 5 mM MgCl2. Cells were suspended in the same buffer. The cell suspensions at 4° C. were disintegrated by a single passage through a French Pressure cell (15,000 lb./in.^2) and centrifuged at 5000×g. for 15 min. to remove unbroken bacteria. The supernatant solution (crude extract) was then centrifuged at 40,000×g. for 30 min., yielding particulate P(40) and soluble S(40) fractions. The S(40) fraction was subsequently centrifuged at 80,000×g. for 60 min., yielding particulate P(80) and soluble S(80) fractions. The particulate fractions [P(40) and P(80)] were suspended in 25 mM potassium phosphate buffer, pH 7.0, containing 5 mM MgCl2 and homogenized at 4° C.
# The oxidation of methane and propylene by particulate [(P)40 and (P)80] fractions and soluble [S(80)] fraction was measured at 30° C. by estimating the production of methanol and propylene oxide, respectively. The reaction mixtures contained in […]: 150 mM potassium phosphate buffer, pH 7.0 containing 5 mM MgCl2 b, 0.6 ml; 10μ moles NADH, and cellular fraction.
# Reaction mixtures were contained in 10 ml vials at 4° C. Vials were sealed with rubber caps. The gaseous phase in the vials was removed using vacuum and then was replaced with a gas mixture of methane or propylene and oxygen at a 1:1, v/v ratio. Oxidation of other gaseous n-alkanes and n-alkanes was examined as described above. For liquid substrates, 10 μl of substrate was used directly.
# The products of epoxidation of n-alkenes and hydroxylation of n-alkanes were assayed by flame ionization gas chromatography using a stainless steel column (12'×1/8") packed with 10% Carbowax 20 M on 80/100 Chromosorb W and Porapak Q column. The column temperature was maintained isothermally at 120° C. The carrier gas flow rate was 30 ml/min. of helium. The various products were identified by retention time comparisons and co-chromatography with authentic standards.
# Specific activities were expressed as μ moles of products formed per hour per mg. protein. Concentrations of protein in various fractions were determined by the method of Lowry et al., J. Biol. Chem., 193: 265-275 (1951).
# [2] = system: methane-grown methylotrophic microorganisms; test: Epoxidation by methane-grown cells of the strains of the invention; type: cell-based
# Experimental: (§1) The pH of the nutrient medium was adjusted to 7.0 by the addition of acid or base and 50 ml samples of the nutrient medium were charged into a plurality of 300 ml shaker flasks. The shaker flasks were inoculated with an inoculating loop of cells from an agar plate containing homogeneous colonies of the microorganisms on the plate (the purity of the isolates was confirmed by microscopic examination. The isolates had been maintained on agar plates under an atmosphere of methane and air having a 1:1 v/v gas ratio which had been transferred evey two weeks. The gaseous phase of the inoculated flasks was then replaced with a gas mixture comprised of methane and air having a ratio of 1:1 on a v/v basis. The inoculated flasks were sealed air tight and were incubated on a rotary shaker of orbital radius 2.5 cm at 250 rpm and at 30° C. for two days until turbidity in the medium had developed.
# The cells were harvested by centrifugation at 10,000×g. at 4° C. for 30 minutes. The cell pellet was washed twice with a 0.15 M phosphate buffer at a pH of 7.0 (containing 0.002 M MgCl2). […]
# A 0.5 ml sample of each washed cell suspension (2 mg cells) was put into 10 ml vials at 4° C. which were sealed with a rubber cap. […] Samples of product (3 μl) were withdrawn periodically with a microsyringe and the products were analyzed by gas chromatography (ionization flame detector column). […]
# [3] = system: Methylobacter bovis (CRL 19 PM5) NRRL B-11,217; test: Oxidation by washed cell suspensions of methane-grown cells; type: cell-based; settings: methane-grown washed cells, 30° C.; methane to methanol, alkene to 1,2-epoxide
# Procedure, shortened: (§2)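 First, strains were cultured aerobically on methane at 30 °C until turbid, then pelleted and washed in phosphate buffer (0.15 M, pH 7.0). Next, 2 mg cell portions were sealed under substrate plus oxygen (1:1) and shaken at 30 °C. Finally, withdrawn samples were analysed by gas chromatography.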
# [4] = system: Methylobacter chroococcum (CRL 23 PM8) NRRL B-11,215; test: as above; type: cell-based; settings: methane-grown washed cells, 30° C.; methane to methanol, alkene to 1,2-epoxide
# Procedure, shortened: as §2
# [5] = system: Methylobacter chroococcum (CRL M6) NRRL B-11,214; test: as above; type: cell-based; settings: methane-grown washed cells, 30° C.; methane to methanol, alkene to 1,2-epoxide
# Procedure, shortened: as §2
# [6] = system: Methylobacter vinelandii (CRL M5Y) NRRL B-11,218; test: as above; type: cell-based; settings: methane-grown washed cells, 30° C.; methane to methanol, alkene to 1,2-epoxide
# Procedure, shortened: as §2
# [7] = system: Methylobacterium organophilum (CRL 26 R6) NRRL B-11,222; test: as above; type: cell-based; settings: methane-grown washed cells, 30° C.; methane to methanol, alkene to 1,2-epoxide
# Procedure, shortened: as §2
# [8] = system: Methylococcus capsulatus (CRL 25 PM13) NRRL B-11,221; test: as above; type: cell-based; settings: methane-grown washed cells, 30° C.; methane to methanol, alkene to 1,2-epoxide
# Procedure, shortened: as §2
# [9] = system: Methylococcus capsulatus (CRL M1) NRRL B-11,219; test: as above; type: cell-based; settings: methane-grown washed cells, 30° C.; methane to methanol, alkene to 1,2-epoxide
# Procedure, shortened: as §2
# [10] = system: Methylococcus minimus (CRL 24 PM12) NRRL B-11,220; test: as above; type: cell-based; settings: methane-grown washed cells, 30° C.; methane to methanol, alkene to 1,2-epoxide
# Procedure, shortened: as §2
# [11] = system: Methylocystis parvus (CRL 18 PM4) NRRL B-11,204; test: as above; type: cell-based; settings: methane-grown washed cells, 30° C.; methane to methanol, alkene to 1,2-epoxide
# Procedure, shortened: as §2
# [12] = system: Methylomonas agile (CRL 22 PM9) NRRL B-11,209; test: as above; type: cell-based; settings: methane-grown washed cells, 30° C.; methane to methanol, alkene to 1,2-epoxide
# Procedure, shortened: as §2
# [13] = system: Methylomonas albus (CRL M8Y) NRRL B-11,207; test: as above; type: cell-based; settings: methane-grown washed cells, 30° C.; methane to methanol, alkene to 1,2-epoxide
# Procedure, shortened: as §2
# [14] = system: Methylomonas methanica (CRL 21 PM7) NRRL B-11,206; test: as above; type: cell-based; settings: methane-grown washed cells, 30° C.; methane to methanol, alkene to 1,2-epoxide
# Procedure, shortened: as §2
# [15] = system: Methylomonas methanica (CRL M4P) NRRL B-11,205; test: as above; type: cell-based; settings: methane-grown washed cells, 30° C.; methane to methanol, alkene to 1,2-epoxide
# Procedure, shortened: as §2
# [16] = system: Methylomonas rosaceus (CRL M7P) NRRL B-11,213; test: as above; type: cell-based; settings: 30° C., methane to methanol, alkene to 1,2-epoxide
# Procedure, shortened: as §2
# [17] = system: Methylomonas rubrum (CRL 20 PM6) NRRL B-11,211; test: as above; type: cell-based; settings: methane-grown washed cells, 30° C.; methane to methanol, alkene to 1,2-epoxide
# Procedure, shortened: as §2
# [18] = system: Methylomonas rubrum (CRL M6P) NRRL B-11,210; test: as above; type: cell-based; settings: methane-grown washed cells, 30° C.; methane to methanol, alkene to 1,2-epoxide
# Procedure, shortened: as §2
# [19] = system: Methylomonas streptobacterium (CRL 17 PM3) NRRL B-11,208; test: as above; type: cell-based; settings: methane-grown washed cells, 30° C.; methane to methanol, alkene to 1,2-epoxide
# Procedure, shortened: as §2
# [20] = system: Methylosinus sporium (CRL 16 PM2) NRRL B-11,203; test: as above; type: cell-based; settings: methane-grown washed cells, 30° C.; methane to methanol, alkene to 1,2-epoxide
# Procedure, shortened: as §2
# [21] = system: Methylosinus trichosporium (CRL 15 PM1) NRRL B-11,202; test: as above; type: cell-based; settings: methane-grown washed cells, 30° C.; methane to methanol, alkene to 1,2-epoxide
# Procedure, shortened: as §2
# [22] = system: Methylomonas rosaceus (CRL M10P) NRRL B-11,212; type: cell-based
# Experimental: as §1
# (§3) The cells were harvested by centrifugation at 10,000×g. at 4° C. for 30 minutes. The cell pellet was washed twice with a 0.15 M phosphate buffer at a pH of 7.0 (containing 0.002 M MgCl2). The washed cells were then suspended in a 0.15 M phosphate buffer at pH 7.0.
# (§4) A 0.5 ml sample of each washed cell suspension (2 mg cells) was put into 10 ml vials at 4° C. which were sealed with a rubber cap. The gaseous phase of the vials was removed with vacuum and then was replaced with a gas mixture of the oxidative substrate (e.g., methane) and oxygen at a 1:1 v/v ratio. The vials were then incubated at 30 ° C. on a rotary shaker at 300 rpm. Samples of product (3 μl) were withdrawn periodically with a microsyringe and the products were analyzed by gas chromatography (ionization flame detector column).
# (§5) The newly discovered and isolated microorganism strains of the present invention were each grown aerobically in the presence of methane in the manner described above. The methane-grown microbial cells were then washed, recovered and put to use in oxidizing an oxidative substrate by the procedure described above except in the case of a liquid substrate 10 μl of the substrate were used.
# [23] = system: Methylobacter bovis (CRL M1Y) NRRL B-11,216; test: Oxidation by washed cell suspensions of methane-grown cells; type: cell-based; settings: methane-grown washed cells, 30° C.; methane to methanol, alkene to 1,2-epoxide
# Experimental: as §1, with “The inoculated flasks were sealed air tight and were incubated on a rotary shaker of orbital radius 2.5 cm at 250 rpm and at 30° C. for two days until turbidity in the medium had developed.” left out
# as §3, §4, §5
structure (smiles),measurement,setting,value
C=CCCC [1-Pentene],Rate of Product Formation,[1],0 μ moles/hr/mg of protein
same,epoxide product formation,[2],did not produce any detectable epoxide product
C=C [Ethylene],Oxidative Conversion Rates,[3],1.3 μmole/hr/mg protein
same,Oxidative Conversion Rates,[4],1.2 μmole/hr/mg protein
same,Oxidative Conversion Rates,[5],1.6 μmole/hr/mg protein
same,Oxidative Conversion Rates,[6],1.2 μmole/hr/mg protein
same,Oxidative Conversion Rates,[7],0.9 μmole/hr/mg protein
same,Oxidative Conversion Rates,[8],0.8 μmole/hr/mg protein
same,Oxidative Conversion Rates,[9],5.7 μmole/hr/mg protein
same,Oxidative Conversion Rates,[10],1.2 μmole/hr/mg protein
same,Oxidative Conversion Rates,[11],0.9 μmole/hr/mg protein
same,Oxidative Conversion Rates,[12],2.2 μmole/hr/mg protein
same,Oxidative Conversion Rates,[13],1.8 μmole/hr/mg protein
same,Oxidative Conversion Rates,[14],2.1 μmole/hr/mg protein
same,Oxidative Conversion Rates,[15],1.0 μmole/hr/mg protein
same,Oxidative Conversion Rates,[16],2.9 μmole/hr/mg protein
same,Oxidative Conversion Rates,[17],1.1 μmole/hr/mg protein
same,Oxidative Conversion Rates,[18],0.7 μmole/hr/mg protein
same,Oxidative Conversion Rates,[19],0.7 μmole/hr/mg protein
same,Oxidative Conversion Rates,[20],1.3 μmole/hr/mg protein
same,Oxidative Conversion Rates,[21],2.5 μmole/hr/mg protein
same,Oxidative Conversion Rates,[22],4.7
same,Oxidative Conversion Rates,[23],0.64 μmole/hr/mg protein
C=CCCCC [hexene-1],epoxide product formation,[2],did not produce any detectable epoxide product
